From patent US20230002346A1, “NEW COMPOUNDS AND METHODS” (BenevolentAl Bio Limited, priority 2019, published 2023)
pIC50: −log10 of the molar value. In brackets after ≈: the same amount, converted by molar mass.

system: not listed separately; test: Kinetic aqueous solubility assay; assay type: physicochemical; conditions: aqueous buffer, kinetic from dmso stock, 0.05M potassium phosphate buffer pH 7.4, 250 μM spike, RT
Description: Using a 10 mM stock solution of test compound in 100% DMSO, test compounds were spiked into 0.05M potassium phosphate buffer (pH 7.4) at a final concentration of 250 μM. Samples in buffer (n=2 aqueous samples, in 96-well plates) were allowed to equilibrate at RT on an orbital shaker for 30 min (300 rpm) to induce precipitation of test compounds. The appearance of each sample was determined by visual examination and noted (clear, cloudy, precipitate observed etc.). […] The concentration of compound in phosphate buffer filtrate was determined by comparing the UV absorbance peak area of each replicate against that of the calibration standards. […] Compounds of the invention have much improved solubility compared to the reference examples.

solubility at 30 min | Structure (SMILES)
215 µM (≈ 88.4 µg/mL) | O=C(Nc1ccc(OC(F)(F)F)cc1)c1ccc(=O)n(CCN2CCOCC2)c1 [Example 2, 1-(2-Morpholinoethyl)-6-oxo-N-[4-(trifluoromethoxy)phenyl]pyridine-3-carboxamide]
140 µM (≈ 55.3 µg/mL) | Cn1ccc(-n2cc(C(=O)Nc3ccc(OC(F)(F)Cl)cc3)ccc2=O)n1 [Example 3, N-[4-(Chlorodifluoromethoxy)phenyl]-1-(1-methyl-1H-pyrazol-3-yl)-6-oxo-1,6-dihydropyridine-3-carboxamide]
180 µM (≈ 69.3 µg/mL) | O=C(Nc1ccc(OC(F)(F)Cl)cc1)c1ccc(=O)n([C@H]2CCOC2)c1 [Example 4, N-[4-[Chloro(difluoro)methoxy]phenyl]-6-oxo-1-[(3S)-tetrahydrofuran-3-yl]pyridine-3-carboxamide]
140 µM (≈ 59.2 µg/mL) | COc1ncc(-n2cc(C(=O)Nc3ccc(OC(F)(F)Cl)cc3)ccc2=O)cn1 [Example 12, N-[4-[Chloro(difluoro)methoxy]phenyl]-1-(2-methoxypyrimidin-5-yl)-6-oxo-pyridine-3-carboxamide]
180 µM (≈ 71.6 µg/mL) | CN1CC[C@@H](n2cc(C(=O)Nc3ccc(OC(F)(F)Cl)cc3)ccc2=O)C1 [Example 16, N-[4-[Chloro(difluoro)methoxy]phenyl]-1-[(3R)-1-methylpyrrolidin-3-yl]-6-oxo-pyridine-3-carboxamide]
200 µM (≈ 81.8 µg/mL) | Cc1c(-n2cc(C(=O)Nc3ccc(OC(F)(F)Cl)cc3)ccc2=O)cnn1C [Example 18, N-[4-[Chloro(difluoro)methoxy]phenyl]-1-(1,5-dimethylpyrazol-4-yl)-6-oxo-pyridine-3-carboxamide]
100 µM (≈ 41.6 µg/mL) | N#Cc1cccc(-n2cc(C(=O)Nc3ccc(OC(F)(F)Cl)cc3)ccc2=O)c1 [Example 20, N-[4-(Chlorodifluoromethoxy)phenyl]-1-(3-cyanophenyl)-6-oxo-1,6-dihydropyridine-3-carboxamide]
170 µM (≈ 67.1 µg/mL) | Cn1nccc1-n1cc(C(=O)Nc2ccc(OC(F)(F)Cl)cc2)ccc1=O [Example 25, N-[4-(Chlorodifluoromethoxy)phenyl]-1-(1-methyl-1H-pyrazol-5-yl)-6-oxo-1,6-dihydropyridine-3-carboxamide]
100 µM (≈ 43.1 µg/mL) | O=C(Nc1ccc(OC(F)(F)Cl)cc1)c1ccc(=O)n(-c2cnn(C(F)F)c2)c1 [Example 27, N-[4-(Chlorodifluoromethoxy)phenyl]-1-[1-(difluoromethyl)-1H-pyrazol-4-yl]-6-oxo-1,6-dihydropyridine-3-carboxamide]
140 µM (≈ 60.1 µg/mL) | Cn1ncc(-n2cc(C(=O)Nc3ccc(OC(F)(F)Cl)cc3)ccc2=O)c1Cl [Example 30, 1-(5-Chloro-1-methyl-1H-pyrazol-4-yl)-N-[4-(chlorodifluoromethoxy)phenyl]-6-oxo-1,6-dihydropyridine-3-carboxamide]
150 µM (≈ 62.5 µg/mL) | N#Cc1cncc(-n2cc(C(=O)Nc3ccc(OC(F)(F)Cl)cc3)ccc2=O)c1 [Example 55, N-[4-[Chloro(difluoro)methoxy]phenyl]-1-(5-cyano-3-pyridyl)-6-oxo-pyridine-3-carboxamide]
170 µM (≈ 69 µg/mL) | Cc1cncc(-n2cc(C(=O)Nc3ccc(OC(F)(F)Cl)cc3)ccc2=O)c1 [Example 57, N-[4-[Chloro(difluoro)methoxy]phenyl]-1-(5-methyl-3-pyridyl)-6-oxo-pyridine-3-carboxamide]
180 µM (≈ 76.1 µg/mL) | COc1cc(C(=O)Nc2ccc(OC(F)(F)Cl)cc2)cn(-c2cncnc2)c1=O [Example 58, N-[4-[Chloro(difluoro)methoxy]phenyl]-5-methoxy-6-oxo-1-pyrimidin-5-yl-pyridine-3-carboxamide]
190 µM (≈ 77.3 µg/mL) | Cc1cc(C(=O)Nc2ccc(OC(F)(F)Cl)cc2)cn(-c2cncnc2)c1=O [Example 59, N-[4-[Chloro(difluoro)methoxy]phenyl]-5-methyl-6-oxo-1-pyrimidin-5-yl-pyridine-3-carboxamide]
210 µM (≈ 100 µg/mL) | O=C(Nc1ccc(OC(F)(F)Cl)cc1)c1cc(N2CCOCC2)c(=O)n(-c2cncnc2)c1 [Example 60, N-[4-(Chlorodifluoromethoxy)phenyl]-5-(morpholin-4-yl)-6-oxo-1-(pyrimidin-5-yl)-1,6-dihydropyridine-3-carboxamide]
110 µM (≈ 49 µg/mL) | Cn1cc2ncc(-n3cc(C(=O)Nc4ccc(OC(F)(F)Cl)cc4)ccc3=O)cc2n1 [Example 71, N-[4-(Chlorodifluoromethoxy)phenyl]-1-{2-methyl-2H-pyrazolo[4,3-b]pyridin-6-yl}-6-oxo-1,6-dihydropyridine-3-carboxamide]
170 µM (≈ 69.2 µg/mL) | Cn1cc(C(=O)Nc2ccc(OC(F)(F)Cl)cc2)cc(-c2cncnc2)c1=O [Example 82, N-[4-(Chlorodifluoromethoxy)phenyl]-1-methyl-6-oxo-5-(pyrimidin-5-yl)-1,6-dihydropyridine-3-carboxamide]
9 µM (≈ 3.38 µg/mL) | O=C(Nc1ccc(OC(F)(F)Cl)cc1)c1cccc(-c2cncnc2)c1 [Ref. ex. 2, N-[4-[Chloro(difluoro)methoxy]phenyl]-3-pyrimidin-5-ylbenzamide, reference compound]
56 µM (≈ 20.9 µg/mL) | Cc1ccc(C(=O)Nc2ccc(OC(F)(F)F)cc2)cc1-c1cccnc1 [Ref. ex. 3, 4-Methyl-3-(3-pyridyl)-N-[4-(trifluoromethoxy)phenyl]benzamide, reference compound]

target: T1, hERG channel (Homo sapiens, UniProt Q12809); test: hERG assay (QPatch automated patch clamp, CHO cells); assay type: cell-based; conditions: CHO cells expressing hERG, whole-cell patch clamp, 0.003 μM to 10 μM
T1 construct: expressed in transfected cells
T1 sequence (Q12809 whole entry): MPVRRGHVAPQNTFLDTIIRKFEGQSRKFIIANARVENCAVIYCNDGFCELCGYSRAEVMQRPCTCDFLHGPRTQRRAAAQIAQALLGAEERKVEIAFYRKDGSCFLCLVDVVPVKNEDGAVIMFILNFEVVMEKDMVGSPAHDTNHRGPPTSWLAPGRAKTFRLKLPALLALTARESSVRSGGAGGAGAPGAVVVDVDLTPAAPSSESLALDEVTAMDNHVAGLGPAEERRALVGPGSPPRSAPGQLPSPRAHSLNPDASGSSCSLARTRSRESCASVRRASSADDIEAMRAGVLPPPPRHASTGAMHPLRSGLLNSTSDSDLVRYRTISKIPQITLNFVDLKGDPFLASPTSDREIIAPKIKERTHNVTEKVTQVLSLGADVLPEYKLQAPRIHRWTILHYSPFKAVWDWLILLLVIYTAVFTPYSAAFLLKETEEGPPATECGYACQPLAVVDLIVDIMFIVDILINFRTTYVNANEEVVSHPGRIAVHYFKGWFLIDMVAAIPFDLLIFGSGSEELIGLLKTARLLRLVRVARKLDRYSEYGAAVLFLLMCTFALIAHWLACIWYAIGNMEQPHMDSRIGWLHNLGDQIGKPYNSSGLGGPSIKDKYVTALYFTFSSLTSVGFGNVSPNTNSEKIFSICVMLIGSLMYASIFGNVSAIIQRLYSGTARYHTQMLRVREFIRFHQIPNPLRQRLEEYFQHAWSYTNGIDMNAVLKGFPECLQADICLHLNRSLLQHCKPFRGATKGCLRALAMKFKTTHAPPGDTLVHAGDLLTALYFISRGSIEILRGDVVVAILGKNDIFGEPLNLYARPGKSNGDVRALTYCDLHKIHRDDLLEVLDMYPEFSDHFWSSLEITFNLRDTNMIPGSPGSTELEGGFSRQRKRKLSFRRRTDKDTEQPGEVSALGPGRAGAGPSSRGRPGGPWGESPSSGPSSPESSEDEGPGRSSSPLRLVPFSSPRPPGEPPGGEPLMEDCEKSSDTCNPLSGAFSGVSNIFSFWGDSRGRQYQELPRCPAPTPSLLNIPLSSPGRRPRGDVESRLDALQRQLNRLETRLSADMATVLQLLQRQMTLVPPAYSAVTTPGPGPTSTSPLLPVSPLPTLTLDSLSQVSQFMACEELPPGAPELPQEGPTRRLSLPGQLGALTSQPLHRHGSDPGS
Excerpt: The human ether-a-go-go related gene (hERG) potassium channel (Kv11.1) contributes to human cardiac action potential repolarisation. Inhibition of hERG channels can prolong the human cardiac action potential, resulting in QTc prolongation and potentially lethal arrhythmias (e.g. Torsade de Pointes).
Test samples were screened against the hERG channel on a QPatch 48 gigaseal automated patch clamp platform, using a Chinese Hamster Ovary (CHO) cell line stably expressing the human ether-á-go-go related gene, which encodes the hERG channel. All recordings were made in the conventional whole-cell configuration and performed at RT ([…]) using standard single hole chips (Rchip 1.5-4M0). Series resistance (4-15Mc) was compensated by >80%. Currents were elicited from a holding potential of −90 mV using the industry standard “^+40/−40” voltage protocol, which was applied at a stimulus frequency of 0.1 Hz. On achieving the whole-cell configuration, vehicle (0.1% DMSO v/v in external recording solution) was applied to each cell in two bolus additions with a 2 min recording period between each addition. Following the vehicle period, eight increasing concentrations of test sample were applied from 0.003 μM to 10 μM as a single bolus addition per test concentration, and the effects on hERG tail current amplitude measured during the 2 min recording period. Each eight-point concentration-response curve was constructed using cumulative single sample additions of each concentration to the same cell. The positive control used in this study was verapamil hydrochloride (Tocris, Cat #0654, Batch #5A/61673) and prepared to a stock concentration of 10 mM in 100% DMSO and kept as frozen aliquots.
Data analysis: All cells passing the QC parameters (i.e. >200 pA outward current, membrane resistance and rundown) are selected as ‘passed QC’ using the QPatch software, which then calculates the mean peak current for the last three sweeps at the end of each concentration application period from the cursor positions defined. Percent inhibition is calculated for each test concentration application period as the reduction in mean cursor value (peak current or charge) relative to the cursor value measured at the end of the control (i.e. vehicle) period. The percent inhibition values from each cell are used to construct concentration-response curves employing a four parametric logistic fit with 0 and 100% inhibition levels fixed at very low and very high concentrations, respectively, and a free Hill slope factor. The IC50 (50% inhibitory concentration) and Hill coefficient are then determined, but only data from cells with Hill slopes within 0.5>nH<2.0 are included. The IC50 data reported below represents the mean (and S.D.) of at least three separate cells (N≥3). […] Compounds of the invention show reduced hERG inhibitory activity compared to the reference examples.

Structure (SMILES) | pIC50
Cc1c(-n2cc(C(=O)Nc3ccc(OC(F)(F)Cl)cc3)ccc2=O)cnn1C [Example 18, N-[4-[Chloro(difluoro)methoxy]phenyl]-1-(1,5-dimethylpyrazol-4-yl)-6-oxo-pyridine-3-carboxamide] | < 5.00
Cn1cc(C(=O)Nc2ccc(OC(F)(F)F)cc2)ccc1=O [Example 26, 1-Methyl-6-oxo-N-[4-(trifluoromethoxy)phenyl]pyridine-3-carboxamide] | < 5.00
Cn1cc(C(=O)Nc2ccc(OC(F)(F)Cl)cc2)cc(-c2cncnc2)c1=O [Example 82, N-[4-(Chlorodifluoromethoxy)phenyl]-1-methyl-6-oxo-5-(pyrimidin-5-yl)-1,6-dihydropyridine-3-carboxamide] | < 5.00
O=C(Nc1ccc(OC(F)(F)Cl)cc1)c1cccc(-c2cncnc2)c1 [Ref. ex. 2, N-[4-[Chloro(difluoro)methoxy]phenyl]-3-pyrimidin-5-ylbenzamide, reference compound] | 5.72
Cc1ccc(C(=O)Nc2ccc(OC(F)(F)F)cc2)cc1-c1cccnc1 [Ref. ex. 3, 4-Methyl-3-(3-pyridyl)-N-[4-(trifluoromethoxy)phenyl]benzamide, reference compound] | 5.60
